Values of other authors, collected in paper PMC10597649, “Effect of Astragali radix extract on pharmacokinetic behavior of dapagliflozin in healthy and type 2 diabetic rats” (Frontiers in Pharmacology, 2023).

Tested on: P-gp
Design: method as in Huang et al., 2012
Settings: ref Huang et al., 2012; cited from earlier work

In the case of CC(=O)O[C@H]1[C@H](O[C@H]2CC[C@]34C[C@]35CC[C@]3(C)[C@@H]([C@@]6(C)CC[C@@H](C(C)(C)O)O6)[C@@H](O)C[C@@]3(C)[C@@H]5C[C@H](O[C@@H]3O[C@H](CO)[C@@H](O)[C@H](O)[C@H]3O)[C@H]4C2(C)C)OC[C@@H](O)[C@@H]1O [Astragaloside II], the P-gp inhibition is listed as “potent P-gp inhibitor”.
